# PMC3321104 (Bioorganic & medicinal chemistry letters, 2012)
# Like-named read-outs stand apart in the source and are kept apart here.
# How the values were obtained:
# Vero cell = Vero cell toxicity; format: cell-based; conditions: concentrations up to 25 μM
# [1] = tested on: chloroquine-resistant P. falciparum strain W2; experiment: microbe, parasite or virus in culture; conditions: Plasmodium falciparum
# [2] = tested on: chloroquine-resistant P. falciparum strain W2
structure (smiles),measurement,setting,value
"O=C(Cn1ccnc1[N+](=O)[O-])NCc1ccccc1 [BNZ, benznidazole]",Vero cell toxicity (in words),Vero cell,non-toxic
"CCN(CC)CCCC(C)Nc1ccnc2cc(Cl)ccc12 (centres unmarked) [CQ, chloroquine]",IC50,"[1]; W2, read-out: IC50 (nM), P. falciparum growth",66.9 ± 2.3 nM
same,IC50,"[1]; W2, read-out: IC50, P. falciparum W2",66.9 nM
"CC1=C(CCCC[P+](c2ccccc2)(c2ccccc2)c2ccccc2)C(=O)c2ccccc2C1=O [9o, (4-(3-methyl-1,4-dioxo-1,4-dihydronaphthalen-2-yl)butyl)triphenyl-phosphonium methanesulfonate]",Vero cell toxicity (in words),Vero cell,not displaying toxicity at 25 μM
CC1=C(CCCCC[P+](c2ccccc2)(c2ccccc2)c2ccccc2)C(=O)c2ccccc2C1=O [9n],fold greater activity than control 4a,[2],3–7 fold
